Assay: RP, Thermo Scientific Acclaim RSLC 120 C18, 100 × 2.1 mm, 2.2 µm, 30 °C, 0.2 mL/min, estimated dead time 1.1 min; A: 90% water + 10% methanol + 0.01% formic acid + 5 mM ammonium formate, pH 3.61; B: methanol + 0.01% formic acid + 5 mM ammonium formate, pH 3.61; gradient (min/%B) 0/1 1/1 2/39 13/99.9 15/99.9 15.1/1 20.1/1
Settings: stereoisomer not certain

Structure (SMILES)	LC retention time [min]
CC(C)C1(NC(=O)C2CC3c4cccc5[nH]cc(c45)CC3N(C)C2)OC2(O)C3CCCN3C(=O)C(Cc3ccccc3)N2C1=O (stereo not given) [Ergocristine-Dihydro]	8.17
CCC(CO)NC(=O)C1C=C2c3cccc4[nH]cc(c34)CC2N(C)C1 (stereo not given) [Ergometrine-Methyl]	4.34
CCC1OC(=O)C(C)C(OC2CC(C)(OC)C(O)C(C)O2)C(C)C(OC2OC(C)CC(N(C)C)C2O)C(C)(O)CC(C)C(=O)C(C)C(O)C1(C)O (stereo not given) [Erythromycin]	8
O=c1ccc2cc(OC3OC(CO)C(O)C(O)C3O)c(O)cc2o1 (stereo not given) [Esculin]	3.69
COC(=O)CCc1ccc(OCC(O)CNC(C)C)cc1 (stereo not given) [Esmolol]	5.18
CCN(C(=O)SCc1ccccc1)C(C)C(C)C (stereo not given) [Esprocarb]	12.2
Clc1ccc2c(c1)C(c1ccccc1)=NCc1nncn1-2 [Estazolam]	8.14
CCOC1OC(C(=O)O)C(O)C(O)C1O (stereo not given) [EtG (Na)]	1.52
CCC1COC(Cn2cncn2)(c2ccc(Cl)cc2Cl)O1 (stereo not given) [Etaconazole]	10.2
CCC(CO)NCCNC(CC)CO (stereo not given) [Ethambutol]	1.93
CCOc1ccccc1C(N)=O [Ethenzamide]	5.68
CCS(=O)(=O)Cc1ccccc1OC(=O)NC [Ethiofencarb-sulfone]	4.63
CCS(=O)Cc1ccccc1OC(=O)NC (stereo not given) [Ethiofencarb-sulfoxide]	4.7
CCOP(=S)(OCC)SCSP(=S)(OCC)OCC [Ethion]	12.4
CCS(=O)c1c(C#N)nn(-c2c(Cl)cc(C(F)(F)F)cc2Cl)c1N (stereo not given) [Ethiprole]	9.32
CCCCc1c(C)nc(NCC)[nH]c1=O [Ethirimol]	8
CCOC1Oc2ccc(OS(C)(=O)=O)cc2C1(C)C (stereo not given) [Ethofumesate]	9.14
CCOc1cc(NC(C)=O)ccc1C(=O)OC [Ethopabate]	6.63
CCCSP(=O)(OCC)SCCC [Ethoprophos]	10.2
CCOc1ccc2c(c1)C(C)=CC(C)(C)N2 [Ethoxyquin]	10.1
CCOc1ccccc1OS(=O)(=O)NC(=O)Nc1nc(OC)cc(OC)n1 [Ethoxysulfuron]	9.32
CCOS(=O)(=O)O [Ethyl Sulphate (NH4)]	1.58

Structure (SMILES)	LC retention time [min]
CCNC(C)C(=O)c1ccc2c(c1)OCO2 (stereo not given) [Ethylone]	4.04
CCOC(=O)c1ccc(O)cc1 [Ethylparaben]	7.15
CCOC(=O)C(c1ccccc1)N1CCCCC1 (stereo not given) [Ethylphenidate]	5.08
CCNCC(O)c1cccc(O)c1 (stereo not given) [Etilefrine]	2.66
CCc1cc2c(s1)-n1c(C)nnc1CN=C2c1ccccc1Cl [Etizolam]	8.31
CCc1cccc2c3c([nH]c12)C(CC)(CC(=O)O)OCC3 (stereo not given) [Etodolac]	10.6
OCCOCCOCCN1CCN(C(c2ccccc2)c2ccc(Cl)cc2)CC1 (stereo not given) [Etodroxizine]	8.33
CCOc1ccc(C(C)(C)COCc2cccc(Oc3ccccc3)c2)cc1 [Etofenprox]	14.1
Cn1c(=O)c2c(ncn2CCO)n(C)c1=O [Etofylline]	4.09
CCOc1cc(C(C)(C)C)ccc1C1COC(c2c(F)cccc2F)=N1 (stereo not given) [Etoxazole]	12.8
CCOc1cc(OP(=S)(OC)OC)nc(CC)n1 [Etrimfos]	11
C=C1CC2C(CCC3(C)C(=O)CCC23)C2(C)C=CC(=O)C=C12 (stereo not given) [Exemestane]	9.03
CC1(C)C(C(=O)c2nn(CCCCCF)c3ccccc23)C1(C)C [FAB-144]	12.7
O=C(Oc1cccc2ccccc12)c1cn(Cc2ccc(F)cc2)c2ccccc12 [FDU-PB-22]	12.6
CC1(C)C(C(=O)c2cn(Cc3ccc(F)cc3)c3ccccc23)C1(C)C [FUB-144]	12.2
O=C(NC12CC3CC(CC(C3)C1)C2)c1nn(Cc2ccc(F)cc2)c2ccccc12 [FUB-AKB48]	13
COC(=O)C(NC(=O)c1nn(Cc2ccc(F)cc2)c2ccccc12)C(C)C (stereo not given) [FUB-AMB]	10.8
O=C(Oc1cccc2cccnc12)c1cn(Cc2ccc(F)cc2)c2ccccc12 [FUB-PB-22]	11.1
O=C(c1cccc2ccccc12)c1nc2ccccc2n1CCCCCF [FUBIMINA]	11.6
NC(N)=Nc1nc(CSCCC(N)=NS(N)(=O)=O)cs1 [Famotidine]	3.24
CC1(c2ccc(Oc3ccccc3)cc2)OC(=O)N(Nc2ccccc2)C1=O (stereo not given) [Famoxadone]	11
COP(=S)(OC)Oc1ccc(S(=O)(=O)N(C)C)cc1 [Famphur]	7.99

Structure (SMILES)	LC retention time [min]
CC(CCN1CCOCC1)OC(=O)C1(c2ccccc2)CCOCC1 (stereo not given) [Fedrilate]	6.12
CCOC(=O)C1=C(C)NC(C)=C(C(=O)OC)C1c1cccc(Cl)c1Cl (stereo not given) [Felodipine]	11
CSC1=NC(C)(c2ccccc2)C(=O)N1Nc1ccccc1 (stereo not given) [Fenamidone]	9.22
CCOP(=O)(NC(C)C)Oc1ccc(S(C)(=O)=O)c(C)c1 (stereo not given) [Fenamiphos - sulfone]	7.21
CCOP(=O)(NC(C)C)Oc1ccc(SC)c(C)c1 (stereo not given) [Fenamiphos]	10.4
OC(c1ccc(Cl)cc1)(c1cncnc1)c1ccccc1Cl (stereo not given) [Fenarimol]	10.1
CC(C)(C)c1ccc(CCOc2ncnc3ccccc23)cc1 [Fenazaquin]	13.7
N#CC(CCc1ccc(Cl)cc1)(Cn1cncn1)c1ccccc1 (stereo not given) [Fenbuconazole]	10.4
CC(C)([CH2][Sn+]([CH2]C(C)(C)c1ccccc1)[CH2]C(C)(C)c1ccccc1)c1ccccc1 [Fenbutatin Oxide Fragm 519]	14.5
CCNC1C2CCC(C2)C1c1ccccc1 (stereo not given) [Fencamfamine]	6.08
COP(=S)(OC)Oc1cc(Cl)c(Cl)cc1Cl [Fenclofos.Ronnel]	12.5
CC(NCCC(c1ccccc1)c1ccccc1)c1ccccc1 (stereo not given) [Fendiline]	8.54
NCC(O)c1cccc(O)c1 (stereo not given) [Fenefrine-Nor]	1.81
CC(Cc1ccccc1)NCCn1cnc2c1c(=O)n(C)c(=O)n2C (stereo not given) [Fenethylline]	5.06
CC(N)Cc1cccc(C(F)(F)F)c1 (stereo not given) [Fenfluramine-Nor]	5.91
CCN(N=O)C(C)Cc1cccc(C(F)(F)F)c1 (stereo not given) [Fenfluramine-n-Nitroso]	9.38
Cc1occc1C(=O)Nc1ccccc1 [Fenfuram]	7.59
CC1(C(=O)Nc2ccc(O)c(Cl)c2Cl)CCCCC1 [Fenhexamide]	10.1
COP(=S)(OC)Oc1ccc([N+](=O)[O-])c(C)c1 [Fenitrothion]	9.92
CCC(C)c1ccccc1OC(=O)NC (stereo not given) [Fenobucarb]	9.05
CC(C)OC(=O)C(C)(C)Oc1ccc(C(=O)c2ccc(Cl)cc2)cc1 [Fenofibrate]	12.6
